The target in the test is T1, benzodiazepine ω3 receptor (Rattus norvegicus, UniProt P16257).
T1 construct: The kidney membrane fraction (ω3) was prepared as follows; from tissue; host or cells: rat (SD, male) kidney membrane fraction
The test is described as follows: Benzodiazepine ω3 receptor binding inhibition test ([3H]-PK-11195, rat kidney membrane fraction). Particulars: 1 h, compound final concentration 100 nM, [3H]-PK-11195 1 nM, 4° C., one hour, read-out: [3H]-PK-11195 Binding inhibitory rate (%). On the procedure:
Experiment 1: Benzodiazepine ω3 receptor and benzodiazepine ω1, ω2 receptors binding inhibition test
The benzodiazepine ω3 receptor binding assay was carried out according to the method disclosed in the literature (Mol. Phamacol., 34, 800-805, 1988), and the benzodiazepine ω1, ω2 receptor binding assays were carried out according to the method disclosed in the literature (Neurophamacol., 34, 1169-1175, 1995), respectively.
SD male rats (Japan Charles River) were decapitated, and the kidney and the cerebral cortex were collected. The kidney membrane fraction (ω3) was prepared as follows. The kidney was homogenized with ice-cold 50 mM Tris-HCl buffer (pH 7.6) of about 5-times volume of the wet tissue weight, and the homogenate was centrifuged at 4° C. for 10 minutes at 20,000 g. The pellets thus obtained were suspended again, and centrifuged at 4° C. for 10 minutes at 20,000 g. These resuspension and centrifugation procedures were repeated once more, and the obtained pellets were diluted in a 50 mM Tris-HCl buffer (pH 7.6) into a concentration of 0.1 mg of protein per one assay of the receptor binding test. The cerebral cortex membrane fraction (ω1 and ω2) was prepared as follows. The cerebral cortex was homogenized with ice-cold potassium phosphate buffer (200 mM KCl, 20 mM KOH, 20 mM KH2PO4, pH 7.4) of 15-times volume of the wet tissue weight, and the homogenate was centrifuged at 4° C. for 15 minutes at 32,500 g. The obtained pellets were suspended again and centrifuged at 4° C. for 15 minutes at 32,500 g. These resuspension and centrifugation procedures were repeated once more, and the obtained pellets were diluted in the potassium phosphate buffer into a concentration of 0.1 mg of protein per one assay of the receptor binding test. Both of these membrane fractions were frozen and stored at −80° C.
As the [^3H]-labeled ligand, [^3H]-PK-11195 (for ω3; PerkinElmer) or [^3H]-Ro-15-1788 [Flumazenil] (for ω1 and ω2; PerkinElmer) was used. […] In order to obtain total binding in the binding inhibition assay, a 0.5% DMSO, the [^3H] labeled ligand (final concentration: 1 nM), and the membrane fraction were mixed (total volume: 1 mL), and the mixture was incubated at 4° C. (for ω3) or at 25° C. (for ω1 and ω2) for one hour. In order to obtain non-specific binding, the non-labeled ligand (final concentration: 10 μM) was added instead of 0.5% DMSO, and in order to study the binding affinity of the present compounds, a solution of the present compound (final concentration: 100 nM for ω3, or 10 μM for ω1 and ω2) in DMSO was added. After the one-hour incubation, the labeled ligand bound to the receptor was collected by filtration with suction through a 0.3% polyethyleneimine-treated GF/B filter using a cell harvester, and washed with ice-cold 50 mM Tris-HCl buffer (for ω3) or ice-cold potassium phosphate buffer (for ω1 and ω2) once. The radioactivity on the GF/B filter was measured with liquid scintillation counter (manufactured by Packard, Tri Carb 2700TR). The results were expressed by the inhibition rate (%) against the binding to the labeled ligand.
On to `CN(C(=O)Cn1c(=O)sc2ccc(-c3ccncc3)cc21)c1ccccc1` [Example 395, N-Methyl-2-(2-oxo-5-pyridin-4-yl-1,3-benzothiazol-3(2H)-yl)-N-phenyl-acetamide], for which the inhibition at 0.1 µM amounted to 95%. As for `CN(C(=O)Cn1c(=O)n(C)c2cc(-c3ccccc3)ccc21)c1ccccc1` [Example 61], the inhibition at 0.1 µM was determined as 100%.

On to `CC(=O)c1cc(Br)cc2c1oc(=O)n2CC(=O)N(C)c1ccccc1` [Example 389, 2-(7-Acetyl-5-bromo-2-oxo-1,3-benzoxazol-3(2H)-yl)-N-methyl-N-phenyl-acetamide], for which the inhibition at 0.1 µM is 97%.

In the case of `CN(C(=O)Cn1c(=O)n2c3c(cccc31)CCC2)c1ccccc1` [Example 113, N-Methyl-2-(2-oxo-5,6-dihydro-4H-imidazo[4,5,1-ij]quinolin-1(2H)-yl)-N-phenylacetamide], the inhibition at 0.1 µM turned out to be 93%. On to `CN(C(=O)Cn1c(=O)oc2ccc(C(=O)c3ccccc3)cc21)c1ccccc1` [Example 373, 2-(5-Benzoyl-2-oxo-1,3-benzoxazol-3(2H) -yl)-N-methyl-N-phenyl-acetamide], for which the inhibition at 0.1 µM was found to be 89%. Under `CN(C(=O)Cn1c(=O)sc2ccc(Br)cc21)c1ccccc1` [Example 55] stands 98%. As for `CC(C(=O)N(C)c1ccccc1)n1c(=O)n2c3c(cc(Br)cc31)CCC2` (stereo not drawn) [Example 137, 2-(8-Bromo-2-oxo-5,6-dihydro-4H-imidazo[4,5,1-ij]quinolin-1(2H)-yl)-N-methyl-N-phenylpropanamide], the inhibition at 0.1 µM was found to be 83%. With `CN(C(=O)Cn1c(=O)sc2c(Br)cccc21)c1ccccc1` [Example 56] the figure was 99%. As to `CN(C(=O)C1CCc2cccc3c2n1c(=O)n3C)c1ccccc1` (stereo not drawn) [Example 142, N,1-Dimethyl-2-oxo-N-phenyl-1,2,5,6-tetrahydro-4H-imidazo[4,5,1-ij]quinoline-4-carboxamide], the inhibition at 0.1 µM was 83%. As for `CN(C(=O)Cn1c(=O)n2c3c(cc(Oc4ccccc4)cc31)CCC2)c1ccccc1` [Example 136, N-Methyl-2-(2-oxo-8-phenoxy-5,6-dihydro-4H-imidazo[4,5,1-ij]quinolin-1(2H)-yl)-N-phenylacetamide], the inhibition at 0.1 µM was 95%. In the case of `CCCN(CCC)C(=O)Cn1c(=O)n(C)c2ccc(-c3ccccc3)cc21` [Example 60], the inhibition at 0.1 µM is 100%. With `CC(C)n1c(=O)n(CC(=O)N(C)c2ccccc2)c2cc(-c3ccccc3)ccc21` [Example 401, 2-(3-Isopropyl-2-oxo-6-phenyl-2,3-dihydro-1H-benzimidazol-1-yl)-N-methyl-N-phenylacetamide] the figure was 88%.

(Values after patent publication US20070191447A1, “Novel heterocyclic compound” (priority 2004, published 2007).)
